PMC8222254, “Self-assembly of an anion receptor with metal-dependent kinase inhibition and potent in vitro anti-cancer properties” (Nature Communications, 2021)
Where “and” joins values, the source holds several entries; their conditions need not be identical. Equal values may be shown once. Read-outs that look alike come from different tables or passages of the source.

Legend:
Test in all cases: Chemosensitivity, 96 h continuous exposure, MTT assay
Type in all cases: cell-based, human
ARPE-19 non-cancer cells = system: ARPE-19 non-cancer cells
From the text: (§1) All cell lines were purchased from and maintained as monolayers as described by the American Type Culture Collection with the exception of the p53^+/+ and p53^−/− isogenic clones of HCT116 human colorectal adenocarcinoma cells which were a kind gift from Professor Bert Vogelstein[54]. GBM1 cells were established from a primary GBM tumour by Heiko Wurdak and colleagues[32],[33]. Non-cancerous adult brain neural progenitor (NP1) cells were derived from a patient undergoing surgery to treat epilepsy[32],[33]. Cell culture and growth media for NP1 and GBM1 cells were as described[32],[33]. The response of cells following a continuous 96-h exposure to test compounds and platinates was determined using the MTT assay. Potency was recorded as the IC50 and the selectivity index (SI) was defined as the ratio of IC50 values for non-cancer to cancer cell lines with values >1 representing selectivity for cancer cells as opposed to non-cancer cells.
(§2) All cell lines used were maintained at low passage in antibiotic-free media. HT29, DLD-1, HCT116 p53^+/+ and HCT116 p53^−/− are all colorectal adenocarcinoma cell lines derived from different individuals and harbour different combinations of oncogenic lesions (except for the HCT116 isogenic cancer cell clones that are genetically identical except for p53 status). PSN-1, BxPC-3 and MiaPaCa2 are pancreatic carcinoma cell lines and A549 and H460 are lung carcinoma cell lines. HT29, DLD-1, PSN-1, BxPC-3, A549 and H460 cell lines were cultured in RPMI-1640 growth media (Sigma) containing 2 mM L-glutamine, 1 mM sodium pyruvate and 10% foetal bovine serum (FBS). HCT116 (p53^+/+ and p53^−/−) and MiaPaCa2 cell lines were cultured in Dulbecco’s Modified Eagle’s Medium (Sigma), 2 mM L-glutamine and 10% FBS. The ARPE-19 retinal epithelial non-cancer cell line was cultured in DMEM/F12 media (Gibco), 2 mM L-glutamine, 1 mM sodium pyruvate and 10% FBS. The MCF10A non-cancerous human breast epithelial cell line was cultured in Minimal Essential Media Eagle (Sigma), 2 mM L-glutamine, 1 mM sodium pyruvate, 10% FBS and 1x non-essential amino acids (NEAA). NP1 and GBM1 cells were cultured on plasticware coated with poly-L-ornithine (5 µg/ml) and laminin (2.4 µg/ml)[32],[33]. NP1 cells were grown in DMEM/F12 media (Gibco) supplemented with 5% FBS, 20 ng/ml hFGF, 20 ng/ml rhEGF, 0.5x B-27 supplement (Gibco), 0.5x N-2 supplement (Gibco) and 1x GLUTAMAX (Gibco). GBM1 cells were cultured in Neurobasal media (Gibco) supplemented with 40 ng/ml hFGF, 40 ng/ml rhEGF, 0.5x B-27 supplement (Gibco) and 0.5x N-2 supplement (Gibco).
(§3) [L2(Metal)3]^6+ and all the other self-assembling complexes were freshly formed by adding DMSO to individual components and mixing together by pipetting. These were then further diluted in cell culture media such that the final DMSO concentration that cells were exposed to was 0.2% (vehicle control). Cisplatin, oxaliplatin and carboplatin were dissolved in phosphate buffered saline. Cell lines were seeded into 96 well plates at 2 × 10^3 cells per well and incubated overnight at 37 °C. GBM1 cancer stem-like cells were seeded at 3 × 10^3 cells per well and NP1 neural progenitors were seeded at 1.5 × 10^3 cells per well. The following day, media was removed and replaced with fresh media containing test compounds at a range of concentrations. Cells were incubated with test compounds for a further 96 h after which the media was removed and replaced with fresh media (200 μl/well). MTT was added (20 μl at 5 mg/ml) and cells were incubated for a further 4 h. Media and MTT were removed and formazan crystals were dissolved in 150 μl of DMSO and the absorbance of the resulting solution determined at 540 nm. Dose response curves were constructed, and the concentration required to reduce cell growth by 50% (IC50) determined.

DLD-1 = system: DLD-1
From the text: as §1, §2, §3

PSN1 = system: PSN1
From the text: as §1, §2, §3

MCF10A non-cancer cells = system: MCF10A non-cancer cells
From the text: as §1, §2, §3

A549 = system: A549
From the text: as §1, §2, §3

HT-29 = system: HT-29
From the text: as §1, §2, §3

BxPC3 = system: BxPC3
From the text: as §1, §2, §3

O=P([O-])([O-])[O-].[Cu+2].[Cu+2].[Cu+2].c1ccc(-c2csc(NCCN(CCNc3nc(-c4ccccn4)cs3)CCNc3nc(-c4ccccn4)cs3)n2)nc1.c1ccc(-c2csc(NCCN(CCNc3nc(-c4ccccn4)cs3)CCNc3nc(-c4ccccn4)cs3)n2)nc1 [[L2Cu3(PO4)]3+]
IC50 (ARPE-19 non-cancer cells; ARPE-19, mean of replicates, read-out: Mean IC50): 164 µM
IC50 (ARPE-19 non-cancer cells; ARPE-19, single replicate, read-out: IC50 values for each replicate): 144 µM and 157 µM and 173 µM and 182 µM
IC50 (ARPE-19 non-cancer cells; ARPE-19 non-cancer, read-out: Mean IC50 values): 164 µM
Relative potency (+ anion to no anion), Ratio + anion:no anion (ARPE-19 non-cancer cells; ratio of IC50, ARPE-19): 3.11
IC50 (DLD-1; DLD-1, mean of replicates, read-out: Mean IC50): 0.637 µM
IC50 (DLD-1; DLD-1, read-out: Mean IC50 values): 0.637 µM
IC50 (DLD-1; DLD-1, single replicate, read-out: IC50 values for each replicate): 0.613 µM and 0.668 µM and 0.654 µM
Selectivity index (ARPE19) (DLD-1; IC50 ARPE-19 / IC50 DLD-1): 257.10
Selectivity index (MCF10A) (DLD-1; IC50 MCF10A / IC50 DLD-1): 77.52
Relative potency (+ anion to no anion), Ratio + anion:no anion (DLD-1; ratio of IC50, DLD-1): 4.83
Selectivity indices relative to ARPE-19, Ratio + anion:no anion (DLD-1; ratio of SI (ARPE-19), DLD-1): 0.645
Selectivity indices relative to MCF10A, Ratio + anion:no anion (DLD-1; ratio of SI (MCF 10A), DLD-1): 0.212
Selectivity index (ARPE19) (PSN1; IC50 ARPE-19 / IC50 PSN1): 9.29
Selectivity index (MCF10A) (PSN1; IC50 MCF10A / IC50 PSN1): 2.80
IC50 (PSN1; PSN1, mean of replicates, read-out: Mean IC50): 17.6 µM
IC50 (PSN1; PSN1, read-out: Mean IC50 values): 17.6 µM
IC50 (PSN1; PSN1, single replicate, read-out: IC50 values for each replicate): 18.4 µM and 18.6 µM and 17.5 µM and 15.9 µM
Relative potency (+ anion to no anion), Ratio + anion:no anion (PSN1; ratio of IC50, PSN1): 2.73
Selectivity indices relative to ARPE-19, Ratio + anion:no anion (PSN1; ratio of SI (ARPE-19), PSN1): 1.138
Selectivity indices relative to MCF10A, Ratio + anion:no anion (PSN1; ratio of SI (MCF 10A), PSN1): 0.374
IC50 (MCF10A non-cancer cells; MCF10A non-cancer, read-out: Mean IC50 values): 49.4 µM
IC50 (MCF10A non-cancer cells; MCF10A, mean of replicates, read-out: Mean IC50): 49.4 µM
IC50 (MCF10A non-cancer cells; MCF10A, single replicate, read-out: IC50 values for each replicate): 46.7 µM and 51 µM and 59.3 µM and 40.6 µM
Relative potency (+ anion to no anion), Ratio + anion:no anion (MCF10A non-cancer cells; ratio of IC50, MCF10A): 1.02
IC50 (A549; A549, mean of replicates, read-out: Mean IC50): 1.22 µM
IC50 (A549; A549, read-out: Mean IC50 values): 1.22 µM
Selectivity index (ARPE19) (A549; IC50 ARPE-19 / IC50 A549): 134.46
Selectivity index (MCF10A) (A549; IC50 MCF10A / IC50 A549): 40.54
Relative potency (+ anion to no anion), Ratio + anion:no anion (A549; ratio of IC50, A549): 5.23
Selectivity indices relative to ARPE-19, Ratio + anion:no anion (A549; ratio of SI (ARPE-19), A549): 0.595
Selectivity indices relative to MCF10A, Ratio + anion:no anion (A549; ratio of SI (MCF 10A), A549): 0.196
IC50 (HT-29; HT29, mean of replicates, read-out: Mean IC50): 0.326 µM
IC50 (HT-29; HT29, read-out: Mean IC50 values): 0.326 µM
IC50 (HT-29; HT-29, single replicate, read-out: IC50 values for each replicate): 0.224 µM and 0.262 µM and 0.594 µM and 0.323 µM and 0.229 µM
Selectivity index (ARPE19) (HT-29; IC50 ARPE-19 / IC50 HT29): 502.36
Selectivity index (MCF10A) (HT-29; IC50 MCF10A / IC50 HT29): 151.48
Relative potency (+ anion to no anion), Ratio + anion:no anion (HT-29; ratio of IC50, HT29): 1.52
Selectivity indices relative to ARPE-19, Ratio + anion:no anion (HT-29; ratio of SI (ARPE-19), HT29): 2.043
Selectivity indices relative to MCF10A, Ratio + anion:no anion (HT-29; ratio of SI (MCF 10A), HT29): 0.672
IC50 (BxPC3; BXPC3, mean of replicates, read-out: Mean IC50): 1.68 µM
IC50 (BxPC3; BXPC3, read-out: Mean IC50 values): 1.68 µM
IC50 (BxPC3; BXPC3, single replicate, read-out: IC50 values for each replicate): 0.704 µM and 1.94 µM and 2.09 µM and 2.25 µM and 1.43 µM
Selectivity index (ARPE19) (BxPC3; IC50 ARPE-19 / IC50 BXPC3): 97.37
Selectivity index (MCF10A) (BxPC3; IC50 MCF10A / IC50 BXPC3): 29.36
Relative potency (+ anion to no anion), Ratio + anion:no anion (BxPC3; ratio of IC50, BXPC3): 5.74
Selectivity indices relative to ARPE-19, Ratio + anion:no anion (BxPC3; ratio of SI (ARPE-19), BXPC3): 0.542
Selectivity indices relative to MCF10A, Ratio + anion:no anion (BxPC3; ratio of SI (MCF 10A), BXPC3): 0.178
